pIC50: −log10 of the molar value.
Columns and labels:
[1] = Evaluation of pharmacokinetics in mice; format: in vivo, Kunming mice (KM mice); conditions: 10 mg/kg intragastric; for Tmax: Kunming (KM), mouse, po; for Tmax / Cmax: male KM mice, plasma; for Cmax compared with undeuterated compound 10: mice
Protocol: 10 mg/kg compound 10, 14, 17, 20 were intragastrically administered to Healthy Kunming mice (KM mice), male, weighing 18-20 g. Compounds were dissolved in DMSO:PEG400:H2O 1:5:14. The volume of administration was 10 mL/kg. Before testing, the mice fasted for 12 h and drunk water ad libitum. Then, the mice were fed together at 2 h after administration. 0.3 mL of blood were took from 3 mice through retrobulbar venous plexus at 0.5, 1.0, 2.0, 4.0, 6.0 and 24 h after administration, placed in heparinized tubes, and centrifuged for 5 min at 11000 rpm. The plasma was separated and frozen in a refrigerator at −20° C. 100 uL of serum was transferred with a pipettor into a clean plastic centrifuge tube marked with compound's name and time point, and diluted with acetonitrile (CH3CN) and centrifuged. The concentration of drug was analyzed by LC-MS. Serum was stored at −80° C. before analysis. The pharmacokinetic parameters of deuterated compound (compound 14, 17, and 20) and undeuterated compound (compound 10) were show in following table.

[2] = test system: human prostate cancer LNCaP; assay: Inhibition of the growth of prostate cancer cells (MTT, R1881-stimulated); format: cell-based; conditions: for pIC50: Homo sapiens, R1881 added, 96 hours, MTT, read-out: IC50, inhibition activity on LNCap/AR cell
Protocol: The ability of compounds to inhibit the growth of prostate cancer cells was tested:
First, the human prostate cancer LNCaP (purchased from ATCC, USA) was transferred to a RPM11640 culture medium containing 10% charcoal-stripped fetal bovine serum (FBS). After cultured for three days, the cells were digested with 0.25% trypsin and counted through trypan blue staining. The cells were plated, with 100 μL cell suspension containing 4000 cells per well. 200 μL medium was added to the wells around the cell plate for avoiding edge effects.
The next day, 6 drug concentrations was prepared (48.6 μM, 19.44 μM, 7.776 μM, 3.11 μM, 1.24 μM, 0.5 μM) before administration, and 100 μL of corresponding compound at corresponding concentration was added into each well of a cell plate. The cell plate was placed in a cell incubator for 30 min, 10 μL of 4 nM R1881 was added into each well and homogeneously mixed. Upon the addition of R1881, the cell plate was placed in a cell incubator and incubated at 37° C., under 5% CO2 for 96 hours. Afterwards, 40 μL of MTT (prepared in PBS, concentration is 2.5 mg/mL) was added into each wells, and incubated at 37° C. for 2 hours. The supernatant was sucked off, and 100 μL of DMSO was added into each well. The plate was shaken by a vibrator for 10 min for dissolving formazan. The plate was read at 570 nm wavelength using a microplate reader in the unit of OD. The inhibition rate of test compounds was calculated with the following equation: IR (%)=(ODcontrol−ODsample)/(ODcontrol−ODblank)×100%
The inhibition rate curve of test compounds was plotted using the software XLFit (Formula 205), which can calculate the 50% inhibition rate, i.e. IC50.

[3] = Evaluation of pharmacokinetics in rats; format: in vivo, SD rats; conditions: 10 mg/kg intragastric; for AUCINF_obs / Tmax / AUC(0-t) / MRT / half-life / Cmax: male SD rats, mean, n = 4
Protocol: 10 mg/kg compound 10, and 14 were intragastrically administered to SD rats male, weighing […]. Compounds were dissolved in DMSO:PEG400:H2O 1:5:14. The volume of administration was 10 mL/kg. Conventional methods were used for the results evaluation.

In the case of `[2H]c1cc(C(=O)NC)c(F)c([2H])c1N1C(=S)N(c2cnc(C#N)c(C(F)(F)F)c2)C(=O)C12CCC2` [Compound 17, 4-[7-(6-cyano-5-trifluoromethyl-3-pyridyl)-8-oxo-6-thio-5,7-diazaspiro [3,4]-5-octyl]-3,5-bideuterium-2-fluoro-N-methyl-benzamide], the Tmax [1] was 6 h and the Cmax [1] was 3.48 µg/mL.
For `[2H]c1cc(C(=O)NC([2H])([2H])[2H])c(F)c([2H])c1N1C(=S)N(c2cnc(C#N)c(C(F)(F)F)c2)C(=O)C12CCC2` [Compound 20, 4-[7-(6-cyano-5-trifluoromethyl-3-pyridyl)-8-oxo-6-thio-5,7-diazaspiro[3,4]-5-octyl]-3,5-bideuterium-2-fluoro-N-trideuteromethyl-benzamide], the Tmax [1] was 4 h, the Cmax [1] was 3.94 µg/mL and the “Cmax compared with undeuterated compound 10” value [1] was “significantly increased”.
In the case of `[2H]C([2H])([2H])NC(=O)c1ccc(N2C(=S)N(c3cnc(C#N)c(C(F)(F)F)c3)C(=O)C23CCC3)cc1F` [Compound 14, 4-[7-(6-cyano-5-trifluoromethyl-3-pyridyl)-8-oxo-6-thio-5,7-diazaspiro [3, 4]-5-octyl]-2-fluoro-N-trideuterated methyl-benzamide], the “inhibition on the growth of prostate cancer cell compared with compound 10” value [2] was “better inhibition”, the pIC50 [2] was 6.55 and the Tmax [1] was 4 h. For the same molecule, the Cmax [1] was 4.48 µg/mL, the “Cmax compared with undeuterated compound 10” value [1] was “significantly increased” and the AUCINF_obs [3] was 28.729 µg·h/mL. The Tmax [3] was 3.500 h, the AUC(0-t) ([3]; rat, in vivo, po) was 24.1 µg·h/mL and the MRT ([3]; rat, in vivo, po) was 13 h. The half-life ([3]; rat, in vivo, po) was 8.93 h, the Cmax ([3]; rat, in vivo, po, read-out: Cmax) was 1.7 µg/mL and the “AUC relative to compound 10” value ([3]; rats) was “about 2 fold”. For the same molecule, the “Cmax relative to compound 10” value ([3]; rats) was “about 2 fold” and the “half-life compared with compound 10” value ([3]; rats) was “longer half-life”.
`CNC(=O)c1ccc(N2C(=S)N(c3cnc(C#N)c(C(F)(F)F)c3)C(=O)C23CCC3)cc1F` [Compound 10, 4-[7-(6-cyano-5-trifluoromethyl-3-pyridyl)-8-oxo-6-thio-5,7-diazaspiro [3, 4]-5-octyl]-2-fluoro-N-methyl-benzamide, reference compound] showed a pIC50 [2] of 6.20, a Tmax [1] of 6 h and a Cmax [1] of 3.32 µg/mL. It also gave an AUCINF_obs [3] of 14.752 µg·h/mL, a Cmax [3] of 0.946 µg/mL and a Tmax [3] of 3.500 h. The AUC(0-t) ([3]; rat, in vivo, po) was 13.1 µg·h/mL, the MRT ([3]; rat, in vivo, po) was 10.7 h and the half-life ([3]; rat, in vivo, po) was 7.38 h.
